Data taken from US10829501B2 (BRISTOL-MYERS SQUIBB COMPANY, priority 2016, dated 2020).
Structures can show the parent of a compound that is named as a salt.

molecular target: ROCK2 (Homo sapiens, UniProt O75116); test: ROCK2 kinase inhibition assay (LABCHIP 3000 Reader, FITC peptide substrate);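 note: rho kinase reaction read by separating phosphorylated from unphosphorylated peptide on chip, with inhibition of kinase activity computed per concentration across a dose-response series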
Sequence (O75116 whole entry, species assumed): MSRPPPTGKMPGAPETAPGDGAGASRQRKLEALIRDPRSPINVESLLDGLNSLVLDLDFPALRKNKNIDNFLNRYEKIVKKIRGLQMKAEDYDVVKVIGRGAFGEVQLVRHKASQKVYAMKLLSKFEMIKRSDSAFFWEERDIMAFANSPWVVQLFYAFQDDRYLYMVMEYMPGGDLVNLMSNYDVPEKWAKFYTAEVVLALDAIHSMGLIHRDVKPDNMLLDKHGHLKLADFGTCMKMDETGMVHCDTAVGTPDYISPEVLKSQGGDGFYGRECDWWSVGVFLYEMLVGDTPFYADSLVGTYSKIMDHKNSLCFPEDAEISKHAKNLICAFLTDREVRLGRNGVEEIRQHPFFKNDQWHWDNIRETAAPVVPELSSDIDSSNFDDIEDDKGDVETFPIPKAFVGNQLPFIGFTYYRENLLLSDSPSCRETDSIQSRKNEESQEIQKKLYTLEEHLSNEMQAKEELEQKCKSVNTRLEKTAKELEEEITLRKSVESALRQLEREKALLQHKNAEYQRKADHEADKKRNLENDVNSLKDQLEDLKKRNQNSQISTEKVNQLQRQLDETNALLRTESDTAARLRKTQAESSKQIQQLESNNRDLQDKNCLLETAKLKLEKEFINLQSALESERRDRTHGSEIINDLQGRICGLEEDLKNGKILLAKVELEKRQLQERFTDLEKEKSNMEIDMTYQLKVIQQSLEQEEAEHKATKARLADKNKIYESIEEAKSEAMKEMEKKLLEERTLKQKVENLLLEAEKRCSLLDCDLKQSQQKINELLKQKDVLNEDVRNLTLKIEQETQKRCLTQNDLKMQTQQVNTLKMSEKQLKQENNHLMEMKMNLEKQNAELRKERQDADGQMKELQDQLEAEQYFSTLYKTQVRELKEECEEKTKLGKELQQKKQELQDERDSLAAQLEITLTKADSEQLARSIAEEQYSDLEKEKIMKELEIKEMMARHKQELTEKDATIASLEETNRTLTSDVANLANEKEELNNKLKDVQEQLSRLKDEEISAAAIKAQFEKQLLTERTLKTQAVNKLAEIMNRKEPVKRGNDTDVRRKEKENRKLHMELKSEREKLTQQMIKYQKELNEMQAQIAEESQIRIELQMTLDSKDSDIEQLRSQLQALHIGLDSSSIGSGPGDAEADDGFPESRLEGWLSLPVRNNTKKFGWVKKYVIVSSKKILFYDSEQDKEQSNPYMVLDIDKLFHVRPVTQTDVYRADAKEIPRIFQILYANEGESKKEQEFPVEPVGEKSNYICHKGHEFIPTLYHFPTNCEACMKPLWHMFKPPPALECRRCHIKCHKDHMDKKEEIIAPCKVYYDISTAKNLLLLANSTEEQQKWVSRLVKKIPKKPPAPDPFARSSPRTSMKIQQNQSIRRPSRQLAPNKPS

Structure (SMILES) | IC50 [nM]
CC(C)(O)COc1ccc2c(C(=O)NC3CC4(C3)CC(Oc3cc(-c5ccccn5)ccc3C(N)=O)C4)cnn2c1 (centres unmarked) [Example 237, N-(6-(2-carbamoyl-5-(pyridin-2-yl)phenoxy)spiro[3.3]heptan-2-yl)-6-(2-hydroxy-2-methylpropoxy)pyrazolo[1,5-a]pyridine-3-carboxamide] | 5 to 50
CC(C)(O)COc1ccc2c(C(=O)NC3CC4(C3)CC(Oc3cc(-c5cccc(OCC(F)(F)F)c5)ccc3C(N)=O)C4)cnn2c1 (centres unmarked) [Example 238, N-(6-((4-carbamoyl-3′-(2,2,2-trifluoroethoxy)-[1,1′-biphenyl]-3-yl)oxy)spiro[3.3]heptan-2-yl)-6-(2-hydroxy-2-methylpropoxy)pyrazolo[1,5-a]pyridine-3-carboxamide] | 50 to 250
COc1cccc(-c2ccc(C(N)=O)c(OC3CC4(CC(NC(=O)c5cnn6cc(OCC(C)(C)O)ccc56)C4)C3)c2)c1 (centres unmarked) [Example 239, N-(6-((4-carbamoyl-3′-methoxy-[1,1′-biphenyl]-3-yl)oxy)spiro[3.3]heptan-2-yl)-6-(2-hydroxy-2-methylpropoxy)pyrazolo[1,5-a]pyridine-3-carboxamide] | 5 to 50
CC(C)(O)COc1ccc2c(C(=O)NC3CC4(C3)CC(Oc3cc(-c5cccc(O)c5)ccc3C(N)=O)C4)cnn2c1 (centres unmarked) [Example 240, N-(6-((4-carbamoyl-3′-hydroxy-[1,1′-biphenyl]-3-yl)oxy)spiro[3.3]heptan-2-yl)-6-(2-hydroxy-2-methylpropoxy)pyrazolo[1,5-a]pyridine-3-carboxamide] | 5 to 50
CC(C)(O)COc1ccc2c(C(=O)NC3CC4(C3)CC(Oc3cc(-c5cccc(C(F)F)c5)ccc3C(N)=O)C4)cnn2c1 (centres unmarked) [Example 241, N-(6-((4-carbamoyl-3′-(difluoromethyl)-[1,1′-biphenyl]-3-yl)oxy)spiro[3.3]heptan-2-yl)-6-(2-hydroxy-2-methylpropoxy)pyrazolo[1,5-a]pyridine-3-carboxamide] | 5 to 50
CC(C)(O)COc1ccc2c(C(=O)NC3CC4(C3)CC(Oc3cc(-c5cccc(F)c5)ccc3C(N)=O)C4)cnn2c1 (centres unmarked) [Example 242, N-(6-((4-carbamoyl-3′-fluoro-[1,1′-biphenyl]-3-yl)oxy)spiro[3.3]heptan-2-yl)-6-(2-hydroxy-2-methylpropoxy)pyrazolo[1,5-a]pyridine-3-carboxamide] | 5 to 50
CC(C)(O)COc1ccc2c(C(=O)NC3CC4(C3)CC(Oc3cc(-c5cccc(C(F)(F)F)c5)ccc3C(N)=O)C4)cnn2c1 (centres unmarked) [Example 243, N-(6-((4-carbamoyl-3′-(trifluoromethyl)-[1,1′-biphenyl]-3-yl)oxy)spiro[3.3]heptan-2-yl)-6-(2-hydroxy-2-methylpropoxy)pyrazolo[1,5-a]pyridine-3-carboxamide] | 50 to 250
CC(C)(O)COc1ccc2c(C(=O)NC3CC4(C3)CC(Oc3cc(-c5cccc(C#N)c5)ccc3C(N)=O)C4)cnn2c1 (centres unmarked) [Example 244, N-(6-((4-carbamoyl-3′-cyano-[1,1′-biphenyl]-3-yl)oxy)spiro[3.3]heptan-2-yl)-6-(2-hydroxy-2-methylpropoxy)pyrazolo[1,5-a]pyridine-3-carboxamide] | < 5
COCc1cccc(-c2ccc(C(N)=O)c(OC3CC4(CC(NC(=O)c5cnn6cc(OCC(C)(C)O)ccc56)C4)C3)c2)c1 (centres unmarked) [Example 245, N-(6-((4-carbamoyl-3′-(methoxymethyl)-[1,1′-biphenyl]-3-yl)oxy)spiro[3.3]heptan-2-yl)-6-(2-hydroxy-2-methylpropoxy)pyrazolo[1,5-a]pyridine-3-carboxamide] | 5 to 50
Cc1nn(-c2cccc(-c3ccc(C(N)=O)c(OC4CC5(CC(NC(=O)c6cnn7cc(OCC(C)(C)O)ccc67)C5)C4)c3)c2)c(N)c1C#N (centres unmarked) [Example 246, N-(6-((3′-(5-amino-4-cyano-3-methyl-1H-pyrazol-1-yl)-4-carbamoyl-[1,1′-biphenyl]-3-yl)oxy)spiro[3.3]heptan-2-yl)-6-(2-hydroxy-2-methylpropoxy)pyrazolo[1,5-a]pyridine-3-carboxamide] | 5 to 50
CC(C)(O)COc1ccc2c(C(=O)NC3CC4(C3)CC(Oc3cc(-c5cccc(CO)c5)ccc3C(N)=O)C4)cnn2c1 (centres unmarked) [Example 247, N-(6-((4-carbamoyl-3′-(hydroxymethyl)-[1,1′-biphenyl]-3-yl)oxy)spiro[3.3]heptan-2-yl)-6-(2-hydroxy-2-methylpropoxy)pyrazolo[1,5-a]pyridine-3-carboxamide] | < 5

Now from value to compound:

IC50 [nM] | Structure (SMILES)
5 to 50 | CC(C)(O)COc1ccc2c(C(=O)NC3CC4(C3)CC(Oc3cc(-c5cccc(Cl)n5)ccc3C(N)=O)C4)cnn2c1 (centres unmarked) [Example 248]
< 5 | CC(C)(O)COc1ccc2c(C(=O)NC3CC4(C3)CC(Oc3cc(-c5cccc(COC(=O)NCCC(=O)O)c5)ccc3C(N)=O)C4)cnn2c1 (centres unmarked) [Example 249, 3-((((4′-carbamoyl-3′-((6-(6-(2-hydroxy-2-methylpropoxy)pyrazolo[1,5-a]pyridine-3-carboxamido)spiro[3.3]heptan-2-yl)oxy)-[1,1′-biphenyl]-3-yl)methoxy)carbonyl)amino)propanoic acid]
50 to 250 | CC(C)(O)COc1ccc2c(C(=O)NC3CC4(C3)CC(Oc3cc(-c5cccc(COC(=O)NCCC(=O)OC(C)(C)C)c5)ccc3C(N)=O)C4)cnn2c1 (centres unmarked) [Example 250, tert-butyl 3-((((4′-carbamoyl-3′-((6-(6-(2-hydroxy-2-methylpropoxy)pyrazolo[1,5-a]pyridine-3-carboxamido)spiro[3.3]heptan-2-yl)oxy)-[1,1′-biphenyl]-3-yl)methoxy)carbonyl)amino)propanoate]
5 to 50 | CCCNC(=O)c1cc(F)cc(-c2ccc(C(N)=O)c(OC3CC4(CC(NC(=O)c5cnn6cc(OCC(C)(C)O)ccc56)C4)C3)c2)c1 (centres unmarked) [Example 251, 5-fluoro-3′-((6-(6-(2-hydroxy-2-methylpropoxy)pyrazolo[1,5-a]pyridine-3-carboxamido)spiro[3.3]heptan-2-yl)oxy)-N3-propyl-[1,1′-biphenyl]-3,4′-dicarboxamide]
5 to 50 | CC(C)(O)COc1ccc2c(C(=O)NC3CC4(C3)CC(Oc3cc(-c5cccc(CN)c5)ccc3C(N)=O)C4)cnn2c1 (centres unmarked) [Example 252, N-(6-((3′-(aminomethyl)-4-carbamoyl-[1,1′-biphenyl]-3-yl)oxy)spiro[3.3]heptan-2-yl)-6-(2-hydroxy-2-methylpropoxy)pyrazolo[1,5-a]pyridine-3-carboxamide]
5 to 50 | CC(C)(O)COc1ccc2c(C(=O)NC3CC4(C3)CC(Oc3cc(-c5cc(F)cc(C#N)c5)ccc3C(N)=O)C4)cnn2c1 (centres unmarked) [Example 253, N-(6-((4-carbamoyl-3′-cyano-5′-fluoro-[1,1′-biphenyl]-3-yl)oxy)spiro[3.3]heptan-2-yl)-6-(2-hydroxy-2-methylpropoxy)pyrazolo[1,5-a]pyridine-3-carboxamide]
5 to 50 | CC(C)(O)COc1ccc2c(C(=O)NC3CC4(C3)CC(Oc3cc(-c5cc(C#N)cc([N+](=O)[O-])c5)ccc3C(N)=O)C4)cnn2c1 (centres unmarked) [Example 254, N-(6-((4-carbamoyl-3′-cyano-5′-nitro-[1,1′-biphenyl]-3-yl)oxy)spiro[3.3]heptan-2-yl)-6-(2-hydroxy-2-methylpropoxy)pyrazolo[1,5-a]pyridine-3-carboxamide]
5 to 50 | CC(C)(O)COc1ccc2c(C(=O)NC3CC4(C3)CC(Oc3cc(-c5cc(C(=O)O)cc(C(=O)O)c5)ccc3C(N)=O)C4)cnn2c1 (centres unmarked) [Example 255, 4′-carbamoyl-3′-((6-(6-(2-hydroxy-2-methylpropoxy)pyrazolo[1,5-a]pyridine-3-carboxamido)spiro[3.3]heptan-2-yl)oxy)-[1,1′-biphenyl]-3,5-dicarboxylic acid]
5 to 50 | CC(C)(O)COc1ccc2c(C(=O)NC3CC4(C3)CC(Oc3cc(-c5cccnc5)ccc3C(N)=O)C4)cnn2c1 (centres unmarked) [Example 256, N-(6-(2-carbamoyl-5-(pyridin-3-yl)phenoxy)spiro[3.3]heptan-2-yl)-6-(2-hydroxy-2-methylpropoxy)pyrazolo[1,5-a]pyridine-3-carboxamide]
5 to 50 | CC(C)(O)COc1ccc2c(C(=O)NC3CC4(C3)CC(Oc3cc(-c5cccc(C(N)C(=O)O)c5)ccc3C(N)=O)C4)cnn2c1 (centres unmarked) [Example 257, 2-amino-2-(4′-carbamoyl-3′-((6-(6-(2-hydroxy-2-methylpropoxy)pyrazolo[1,5-a]pyridine-3-carboxamido)spiro[3.3]heptan-2-yl)oxy)-[1,1′-biphenyl]-3-yl)acetic Acid]
< 5 | CC(C)(O)COc1ccc2c(C(=O)NC3CC4(C3)CC(Oc3cc(-c5cc(CO)cc(CO)c5)ccc3C(N)=O)C4)cnn2c1 (centres unmarked) [Example 258, N-(6-((4-carbamoyl-3′,5′-bis(hydroxymethyl)-[1,1′-biphenyl]-3-yl)oxy)spiro[3.3]heptan-2-yl)-6-(2-hydroxy-2-methylpropoxy)pyrazolo[1,5-a]pyridine-3-carboxamide]
5 to 50 | CC(C)(O)COc1ccc2c(C(=O)NC3CC4(C3)CC(Oc3cc(O)ccc3C(N)=O)C4)cnn2c1 (centres unmarked) [Example 259, N-(6-(2-carbamoyl-5-hydroxyphenoxy)spiro[3.3]heptan-2-yl)-6-(2-hydroxy-2-methylpropoxy)pyrazolo[1,5-a]pyridine-3-carboxamide]
5 to 50 | CC(C)(O)COc1ccc2c(C(=O)NC3CC4(C3)CC(Oc3cc(N5CC(N)C5)ccc3C(N)=O)C4)cnn2c1 (centres unmarked) [Example 260, N-(6-(5-(3-aminoazetidin-1-yl)-2-carbamoylphenoxy)spiro[3.3]heptan-2-yl)-6-(2-hydroxy-2-methylpropoxy)pyrazolo[1,5-a]pyridine-3-carboxamide, TFA]
< 5 | CC(C)(O)COc1ccc2c(C(=O)NC3CC4(C3)CC(Oc3cc(-c5cccc(CCN)c5)ccc3C(N)=O)C4)cnn2c1 (centres unmarked) [Example 261, N-(6-((3′-(2-aminoethyl)-4-carbamoyl-[1,1′-biphenyl]-3-yl)oxy)spiro[3.3]heptan-2-yl)-6-(2-hydroxy-2-methylpropoxy)pyrazolo[1,5-a]pyridine-3-carboxamide]
5 to 50 | CN(C)CCCc1ccc(C(N)=O)c(OC2CC3(CC(NC(=O)c4cnn5cc(OCC(C)(C)O)ccc45)C3)C2)c1 (centres unmarked) [Example 262, N-(6-(2-carbamoyl-5-(3-(dimethylamino)propyl)phenoxy)spiro[3.3]heptan-2-yl)-6-(2-hydroxy-2-methylpropoxy)pyrazolo[1,5-a]pyridine-3-carboxamide]
